Experiment [1] has as its system anaphylactic asthma in guinea-pigs. Nature of the experiment: Inhibition test of anaphylactic asthma in guinea-pigs. Type of experiment: in vivo. Particulars: intraperitoneal, survived more than 7 minutes. How it is done: (c) Guinea-pig antiserum against egg albumin
A solution of egg albumin (10 mg.) in normal saline (1 ml.) was mixed with incomplete adjuvant (1 ml.) to give an emulsion. The emulsion was given subcutaneously in a single dose of 0.4 ml. divided equally (0.1 ml.) to the four pads of male Hartley strain guinea-pigs, each weighing 350-380 g.
Two weeks after the administration, a solution of egg albumin (1 mg.) in normal saline (1 ml.) was further given subcutaneously in a single dose of 0.4 ml divided equally (0.1 ml.) to the four pads of the same guinea-pigs.
Subsequently, one week and two weeks after the second adminstration, the guinea-pigs were treated in substantially the same manner as the above second administration.
One week after the final administration, blood samples were collected from the guinea-pigs and treated in substantially the same manner as described in the above item (a). The antisera thus obtained were stored at -80° C. prior to use.
(3) Inhibition test of anaphylactic asthma in guinea-pigs
To ten male Hartley strain guinea-pigs, weighing 300 g was given intravenously the guinea-pig antiserum against egg albumin (0.1 ml.), respectively. Twenty four hours after the administration, each of the guinea-pigs was put individually into each of boxes (innercapacity: 5.3 liters). A normal saline containing egg albumine (1%) was continuously sprayed with a nebulizer into the boxes.
Beforehand, one hour and 30 seconds before putting the guinea-pigs into each of the boxes, a normal saline (1 ml.) containing the prescribed amount of N-methylaurotetanine hydrochloride and carboxymethylcellulose (0.5%) was given intraperitoneally to five guinea-pigs and a normal saline (1 ml.) containing only carboxymethylcellulose (0.5%) was given intraperitoneally to each of the remaining 5 guinea-pigs. Time till the test animal was suffocated to death, was measured and when animals survived more than 7 minutes, inhibition of anaphylactic asthma were judged as effective. Survival (%) was calculated by the following formula: [formula]

In experiment [2] the test system is P.C.A. reaction in I.C.R. strain mice. Nature of the experiment: Inhibition test of P.C.A. reaction in I.C.R. strain mice, rat hyperimmune antiserum against egg albumin. The class given is in vivo. Particulars: I.C.R. mouse (Table 3-I). How it is done: (c) Inhibition test of P.C.A. reaction in I.C.R. (Institute of Cancer Research) strain mice
(i) Test compound: N-methyllaurotetanine hydrochloride
Fifteen male I.C.R. strain mice aged 7 weeks, weighing about 35 g were divided equally into 3 groups. Each of the groups was composed of 5 mice, (in case of intraperioneal administration of the test compound to the mouse, each of the groups was composed of […]).
Ten-hold diluted solution (0.05 ml.) of the rat hyperimmune antiserum against egg albumin was given intracutaneously to the depilated back of each mouse of Group I and Group II, respectively. On the other hand, a rat normal serum (0.05 ml.) was given intracutaneously to the depilated back of each mouse of Group III. Three hours after the administration, a normal saline (0.1 ml.) containing egg albumin (1.5 mg.) and Evans blue (0.5 mg.) was given intravenously to each mouse of Groups I-III in order to bring about P.C.A., respectively.
Beforehand, 3 hours and 1 hours before the admnistration to bring about P.C.A., a normal saline (0.3 ml.) containing the prescribed amount of N-methyllaurotetanine hydrochloride and carboxymethylcellulose (0.5%) was given orally or intraperitoneally to each mouse of Group I, and a normal saline (0.3 ml.) containing only carboxymethylcellulose (0.5%) was given orally or intraperitoneally to each mouse of Group II.
The procedure followed by the above, was carried out in substantially the same manner as described in the above item (2)-(a). […]

Structures can show the parent of a compound that is named as a salt.

Turning to `COc1cc2c(cc1O)CC1c3c(cc(OC)c(OC)c3-2)CCN1C` (stereo not drawn) [N-Methyllaurotetanine hydrochloride], the values for the Survival in experiment [1] (30 mg/kg), in experiment [1] (60 mg/kg) and in experiment [1] (120 mg/kg) were 0%, 40% and 80%, respectively. In addition, the “Inhibitory effect on P.C.A. reaction” value stood at 50% in experiment [2] (intraperitoneal, 3 mg/kg); 80% in experiment [2] (intraperitoneal, 10 mg/kg); 95% in experiment [2] (intraperitoneal, 30 mg/kg); 20% in experiment [2] (oral, 16 mg/kg); 50% in experiment [2] (oral, 48 mg/kg); 70% in experiment [2] (oral, 145 mg/kg).

(Values after patent US4185119A, “Antiallergic methods” (priority 1977, dated 1980).)
